Test results taken from patent publication US20180044685A1, “APPLICATION OF SYK SERVING AS THERAPEUTIC TARGET FOR HEPATIC FIBROSIS/HEPATIC CIRRHOSIS” (priority 2015, published 2018).

Legend:
[1] = system: mouse hepatic fibrosis model induced by CCl4; experiment: Mouse hepatic fibrosis model induced by carbon tetrachloride (CCl4); format: in vivo; conditions: gavage 5 mg/kg once a day, 6 weeks
Procedure: Mouse hepatic fibrosis model: male C577BL/6 mice (8-week old) were used with 8 in each group and were injected intra-abdominally with 0.2 ml (diluted by olive oil) of 10% CCl4 twice a week; and a control group was injected intra-abdominally with an equal volume of olive oil for 18 consecutive weeks.

[2] = system: chronic lymphocytic leukemia; conditions: phase II clinical trials of chronic lymphocytic leukemia; cited from earlier work

Question: What does the source list for `c1cn2cc(-c3ccc4cn[nH]c4c3)nc(Nc3ccc(N4CCOCC4)cc3)c2n1` [GS-9973, Entospletinib]?
Answer: generation of hepatic collagen (Sirius Red staining) [1]: remarkably inhibit; effective rate [2]: 91%
